The source of these data is US8410064B2, “Classical cannabinoid metabolites and methods of use thereof” (priority 2009, dated 2013).

For one series, the target named is T1, recombinant human UGT1A9 (Homo sapiens, UniProt O60656).
T1 sequence (O60656 26-530): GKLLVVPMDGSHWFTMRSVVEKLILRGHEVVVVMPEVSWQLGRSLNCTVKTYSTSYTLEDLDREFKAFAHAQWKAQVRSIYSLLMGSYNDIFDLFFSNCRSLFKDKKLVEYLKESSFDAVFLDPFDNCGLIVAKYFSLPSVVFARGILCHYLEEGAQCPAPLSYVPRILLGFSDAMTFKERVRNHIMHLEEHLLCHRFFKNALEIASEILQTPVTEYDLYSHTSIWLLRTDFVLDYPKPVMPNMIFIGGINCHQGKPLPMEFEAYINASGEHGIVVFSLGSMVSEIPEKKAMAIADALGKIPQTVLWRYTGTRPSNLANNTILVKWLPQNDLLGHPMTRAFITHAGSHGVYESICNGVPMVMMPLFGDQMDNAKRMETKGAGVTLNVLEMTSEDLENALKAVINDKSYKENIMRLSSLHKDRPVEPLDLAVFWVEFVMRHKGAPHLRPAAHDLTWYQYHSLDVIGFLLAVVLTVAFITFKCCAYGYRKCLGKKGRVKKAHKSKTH
In words: Glucuronidation by recombinant UGT1A9 (activity screen and steady-state kinetics). Particulars: UDP-GlcUA 4 mM.

Series [1] addresses T2, recombinant human UGT1A10 (Homo sapiens, UniProt Q9HAW8).
T2 sequence (Q9HAW8 26-530): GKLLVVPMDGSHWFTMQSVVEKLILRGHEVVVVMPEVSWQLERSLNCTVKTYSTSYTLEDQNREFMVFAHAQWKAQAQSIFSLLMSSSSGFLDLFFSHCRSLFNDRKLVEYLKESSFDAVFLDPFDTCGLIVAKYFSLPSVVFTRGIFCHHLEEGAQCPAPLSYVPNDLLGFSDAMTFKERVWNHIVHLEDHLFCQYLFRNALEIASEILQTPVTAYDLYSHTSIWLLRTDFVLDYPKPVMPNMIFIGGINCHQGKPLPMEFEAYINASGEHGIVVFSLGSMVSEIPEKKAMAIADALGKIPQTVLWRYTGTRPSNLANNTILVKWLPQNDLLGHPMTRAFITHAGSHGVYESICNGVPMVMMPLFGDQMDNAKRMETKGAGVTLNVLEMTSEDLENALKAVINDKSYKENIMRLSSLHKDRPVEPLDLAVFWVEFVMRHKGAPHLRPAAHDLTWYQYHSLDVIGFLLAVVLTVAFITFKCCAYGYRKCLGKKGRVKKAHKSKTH
In words: Glucuronidation by recombinant UGT1A10 (activity screen and steady-state kinetics). Particulars: for glucuronidation activity (initial screen): 750 μM substrate, 90 min.

The test system of the next series is human liver microsomes. In words: Glucuronidation by human liver microsomes (activity screen). Particulars: human liver microsomes (HLM); 750 μM substrate, UDP-GlcUA 4 mM, 90 min. (Liver microsomes are a subcellular fraction often used to study metabolism.)
The target in the next series is T3, recombinant human UGT1A3 (Homo sapiens, UniProt P35503).
T3 sequence (P35503 29-534): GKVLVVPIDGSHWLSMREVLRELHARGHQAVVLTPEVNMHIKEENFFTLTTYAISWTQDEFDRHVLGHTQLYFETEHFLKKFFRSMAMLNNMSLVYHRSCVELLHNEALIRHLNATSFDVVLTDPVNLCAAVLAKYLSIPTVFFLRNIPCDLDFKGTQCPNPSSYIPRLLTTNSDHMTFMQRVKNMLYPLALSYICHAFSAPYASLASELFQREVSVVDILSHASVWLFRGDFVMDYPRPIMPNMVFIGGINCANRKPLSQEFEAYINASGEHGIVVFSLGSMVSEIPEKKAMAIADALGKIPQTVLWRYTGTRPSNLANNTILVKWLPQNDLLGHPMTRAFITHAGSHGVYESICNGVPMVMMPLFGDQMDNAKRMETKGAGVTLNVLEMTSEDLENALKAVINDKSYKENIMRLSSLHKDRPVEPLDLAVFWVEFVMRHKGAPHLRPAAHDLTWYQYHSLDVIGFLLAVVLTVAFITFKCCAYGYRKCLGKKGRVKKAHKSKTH
In words: Glucuronidation by recombinant UGT1A3 (activity screen and steady-state kinetics). Particulars: UDP-GlcUA 4 mM.

The target of the next series is T4, recombinant human UGT1A1 (Homo sapiens, UniProt P22309).
T4 sequence (P22309 26-533): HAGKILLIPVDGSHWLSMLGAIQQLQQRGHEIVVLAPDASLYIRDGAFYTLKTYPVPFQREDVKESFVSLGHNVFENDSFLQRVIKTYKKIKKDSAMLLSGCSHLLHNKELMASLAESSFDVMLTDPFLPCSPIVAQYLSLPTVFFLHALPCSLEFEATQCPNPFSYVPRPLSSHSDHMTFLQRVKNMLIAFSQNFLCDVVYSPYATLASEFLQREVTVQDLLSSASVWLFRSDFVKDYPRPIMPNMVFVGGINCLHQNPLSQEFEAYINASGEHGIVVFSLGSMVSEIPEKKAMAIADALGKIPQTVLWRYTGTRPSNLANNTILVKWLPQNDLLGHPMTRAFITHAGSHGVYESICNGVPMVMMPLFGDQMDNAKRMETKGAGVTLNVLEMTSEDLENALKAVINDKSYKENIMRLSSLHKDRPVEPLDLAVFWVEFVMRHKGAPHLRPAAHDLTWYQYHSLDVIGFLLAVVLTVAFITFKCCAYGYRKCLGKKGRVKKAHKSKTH
In words: Glucuronidation by recombinant UGT1A1 (activity screen and steady-state kinetics). Particulars: UDP-GlcUA 4 mM.

Substrate in series [2]: CCCCCc1cc(O)c2c(c1)OC(C)(C)c1ccc(C)cc1-2
In words: cells, lysate or membranes named. Particulars: UDP-GlcUA 4 mM, 37° C., 30 min, TLC, pH 7.4.

[3] abbreviates: 5 μg membrane protein, 37° C., 30 min, TLC.
[4] abbreviates: 5 μg membrane protein, 37° C., 30 min, TLC, normalized.
[5] abbreviates: other: UGT1A10, 5 μg membrane protein.
Setting [6] is: other: UGT1A7, 5 μg membrane protein.
The mark [7] stands for this setting: other: UGT1A8, 5 μg membrane protein.
The mark [8] stands for this setting: other: UGT1A9, 5 μg membrane protein.

As to (±)-11-hydroxy-Δ^9-THC [11-OH-THC], the Km (commonly the concentration of substrate that gives half-maximal velocity) at recombinant human UGT1A9 (setting [3]) stood at 73 ± 1.9 µM; in series [1] (5 μg membrane protein, UDP-GlcUA 4 mM, 37° C., 30 min, TLC) it was 72 ± 19 µM. Besides, the Vmax on recombinant human UGT1A9 (setting [4]) came to 0.14 ± 0.01 nmol/mg protein/min; in series [1] (5 μg membrane protein, UDP-GlcUA 4 mM, 37° C., 30 min, TLC, normalized), 0.33 ± 0.03 nmol/mg protein/min. Besides, the “glucuronidation activity (initial screen)” value (shortened to “glucuronidation activity”) on recombinant human UGT1A9 (750 μM substrate, 90 min) is recorded as “specifically glucuronidated”; in series [1] (UDP-GlcUA 4 mM) it was “specifically glucuronidated”.

Regarding `CCCCCc1cc(O)c2c(c1)OC(C)(C)[C@@H]1CCC(C(=O)O)=C[C@@H]21` [COOH-THC, (−)-11-nor-9-carboxy-Δ^9-THC], the “glucuronidation activity” value is given as “significant amount of activity” with human liver microsomes; “highest activity” at recombinant human UGT1A3 (750 μM substrate, 90 min); “significant amount of activity” at recombinant human UGT1A1 (750 μM substrate, 90 min). Further, the Km at recombinant human UGT1A3 (setting [3]) worked out at 68 ± 17 µM; at recombinant human UGT1A1 (setting [3]) it was 170 ± 37 µM. Besides, the Vmax at recombinant human UGT1A3 (setting [4]) came out at 0.68 ± 0.06 nmol/mg protein/min; at recombinant human UGT1A1 (setting [4]), 0.22 ± 0.02 nmol/mg protein/min.

Regarding `CCCCCc1cc(O)c2c(c1)OC(C)(C)c1ccc(C)cc1-2` [CBN, cannabinol], the “glucuronidation activity” value in series [1] (UDP-GlcUA 4 mM) is recorded as “glucuronidated at high levels”. In addition, the “effectiveness of conjugation relative to 11-OH-THC” value in series [1] (CBN versus 11-OH-THC) was 3 fold.

B1: recombinant human UGT1A10 (Homo sapiens) (protein)
chain: T2 sequence (Q9HAW8 26-530)
With B1, in series [2] (setting [5]), the Km is 59 ± 10 µM and the Vmax is 0.00091 µmol/min/mg.

B2: recombinant human UGT1A7 (Homo sapiens) (protein)
chain: GKLLVVPMDGSHWFTMQSVVEKLILRGHEVVVVMPEVSWQLGRSLNCTVKTYSTSYTLEDQDREFMVFADARWTAPLRSAFSLLTSSSNGIFDLFFSNCRSLFNDRKLVEYLKESCFDAVFLDPFDACGLIVAKYFSLPSVVFARGIFCHYLEEGAQCPAPLSYVPRLLLGFSDAMTFKERVWNHIMHLEEHLFCPYFFKNVLEIASEILQTPVTAYDLYSHTSIWLLRTDFVLEYPKPVMPNMIFIGGINCHQGKPVPMEFEAYINASGEHGIVVFSLGSMVSEIPEKKAMAIADALGKIPQTVLWRYTGTRPSNLANNTILVKWLPQNDLLGHPMTRAFITHAGSHGVYESICNGVPMVMMPLFGDQMDNAKRMETKGAGVTLNVLEMTSEDLENALKAVINDKSYKENIMRLSSLHKDRPVEPLDLAVFWVEFVMRHKGAPHLRPAAHDLTWYQYHSLDVIGFLLAVVLTVAFITFKCCAYGYRKCLGKKGRVKKAHKSKTH
On to B2, for which, in series [2] (setting [6]), the Km turned out to be 19 ± 3.9 µM and the Vmax stood at 0.00024 µmol/min/mg.

B3: recombinant human UGT1A8 (Homo sapiens) (protein)
chain: GKLLVVPMDGSHWFTMQSVVEKLILRGHEVVVVMPEVSWQLGKSLNCTVKTYSTSYTLEDLDREFMDFADAQWKAQVRSLFSLFLSSSNGFFNLFFSHCRSLFNDRKLVEYLKESSFDAVFLDPFDACGLIVAKYFSLPSVVFARGIACHYLEEGAQCPAPLSYVPRILLGFSDAMTFKERVRNHIMHLEEHLFCQYFSKNALEIASEILQTPVTAYDLYSHTSIWLLRTDFVLDYPKPVMPNMIFIGGINCHQGKPLPMEFEAYINASGEHGIVVFSLGSMVSEIPEKKAMAIADALGKIPQTVLWRYTGTRPSNLANNTILVKWLPQNDLLGHPMTRAFITHAGSHGVYESICNGVPMVMMPLFGDQMDNAKRMETKGAGVTLNVLEMTSEDLENALKAVINDKSYKENIMRLSSLHKDRPVEPLDLAVFWVEFVMRHKGAPHLRPAAHDLTWYQYHSLDVIGFLLAVVLTVAFITFKCCAYGYRKCLGKKGRVKKAHKSKTH
For the molecule B3, in series [2] (setting [7]), the Km is 44 ± 8.1 µM and the Vmax is 0.00049 µmol/min/mg.

B4: recombinant human UGT1A9 (Homo sapiens) (protein)
chain: T1 sequence (O60656 26-530)
Consider B4, for which, in series [2] (setting [8]), the Km stood at 3.4 ± 1.3 µM and the Vmax is 0.0001 µmol/min/mg.
